We go through one compound from patent publication US20260167615A1, “COMPOUNDS AND COMPOSITIONS AS GPR52 MODULATORS” (Neurocrine Biosciences, Inc., priority 2022, published 2026).

This data set is described as follows: Stability in mammalian liver microsomes (Example D). Format: in vitro ADME. Conditions: human liver microsomes 0.5 mg/mL, 0.5 μM compound, 37° C.; scaled from in vitro half-life (Obach method); linker comparators. The protocol:
Compounds of Formula I were assessed for their stability in mammalian liver microsomes. A compound of Formula I (0.5 μM) was incubated with pooled mixed gender human liver microsomes (HLM) (0.5 mg/mL total protein) at 37° C. in the presence of an NADPH-generating system containing 50 mM, pH 7.4 potassium phosphate buffer, 3 mM magnesium chloride, 1 mM EDTA, 1 mM NADP, 5 mM glusose-6-phosphate, and 1 Unit/mL glucose-6-phosphate dehydrogenase. All concentrations were relative to the final incubation volume of 125 μL. Incubations were conducted at 37° C. for 0, 5, 10, 20, 40 and 60 minutes in a water bath and terminated by rapid mixing with 150 μL of ice-cold acetonitrile containing internal standard, and precipitated proteins were removed by centrifugation prior to LC-MS/MS analysis. Aliquots of the resulting supernatant fractions were analyzed by LC-MS/MS monitoring for depletion of parent compound. The resultant peak area ratio versus time data was fitted to a non-linear regression using XLfit Scientific Curve Fitting Software (IDBS Ltd., Surrey, UK) and half-life was calculated from the slope. Pharmacokinetic parameters were predicted using the method described by Obach et al (J. Pharmcol. Exp. Ther. 1997; 283:46.58). Briefly, values for intrinsic clearance were calculated from the in vitro half-life data and were then scaled to represent the clearance expected in the entire animal (human). Additional values calculated included predicted extraction ratio and predicted maximum bioavailability. For example, the O-linker has better metabolic stability relative to the methyl linker or the —CH2O-linker, as shown by the following comparators
In general terms: Liver microsomes are vesicles of endoplasmic reticulum, rich in cytochrome P450 enzymes.

For the compound `Cc1cc(-c2cc(Oc3ccc4c(cnn4C)c3)ccn2)ccc1C(N)=O` [drawing 283], the “Metabolic stability - predicted systemic clearance” value is on record as “Metabolic stability - predicted systemic clearance (example D, above) is 8.0 ml/min/kg”.
